Patent US10611740B2, “Aryl dihydro-2H-benzo[b][1,4]oxazine sulfonamide and related compounds for use as agonists of RORγ and the treatment of disease” (Lycera Corporation, priority 2015, dated 2020)

Columns and labels:
Gal4-RORγ-LBD = biological target: T1, Gal4-RORγ-LBD (Homo sapiens, UniProt P51449); assay: Gal4-RORγ Luciferase Reporter Assay in HEK-293T Cells; assay type: cell-based; conditions: HEK-293 cells
T1 construct: expressed in transfected cells; host or cells: HEK-293 cells (pcDNA3.1neo plasmid)
T1 sequence (P51449 269-508 limits assumed): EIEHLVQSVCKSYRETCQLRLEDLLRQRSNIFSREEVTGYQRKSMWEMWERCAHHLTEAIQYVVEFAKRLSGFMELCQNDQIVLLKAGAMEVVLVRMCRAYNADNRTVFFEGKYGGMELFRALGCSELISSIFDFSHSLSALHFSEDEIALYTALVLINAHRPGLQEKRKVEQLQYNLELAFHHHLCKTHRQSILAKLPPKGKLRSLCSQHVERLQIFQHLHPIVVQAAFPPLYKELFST
Method in brief: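 HEK-293 cells were transiently co-transfected with Gal4-RORγ-LBD and pGL4.31 Gal4-luciferase, with ursolic acid added at 2 μM final. Compounds were incubated overnight at 37° C. in 0.2% DMSO and luminescence read with One-Glo. Max Response is the upper plateau of a 4-parameter logistic fit, with signal lacking ursolic acid or compound set to 100.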

RORγ-LBD = biological target: T2, RORγ-LBD (Homo sapiens, UniProt P51449); assay: RORγ-Ligand Binding Domain (LBD) TR-FRET Assay; assay type: biochemical;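 for TR-FRET Assay Max Response: 665/615 nm ratio relative to signal without ursolic acid or compound set at 100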
T2 construct: made in house; host or cells: SF9 cells (baculovirus)
T2 sequence (P51449 269-508 limits assumed): T1 sequence (P51449 269-508 limits assumed)
Method in brief: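 His-tagged RORγ-LBD from SF9 baculovirus lysate, ~3 nM final, in 50 mM Tris pH 7.0, 50 mM KCl, 1 mM EDTA, 0.1 mM DTT, 0.01% BSA. Biotinylated SRC1 LXXLL peptide at 200 nM final with 2 μM ursolic acid; TR-FRET read-out, 1% DMSO final.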

[1] = luciferase reporter, with 2 μM ursolic acid

Compound | EC50 (Gal4-RORγ-LBD; [1]) [nM] | EC50 (RORγ-LBD) [nM] | EC50 (Gal4-RORγ-LBD; 2 μM ursolic acid) [nM] | Gal4-RORγ Assay Max Response (Gal4-RORγ-LBD; [1]) | TR-FRET Assay Max Response (RORγ-LBD) | Gal4-RORγ Assay Max Response (Gal4-RORγ-LBD; 2 μM ursolic acid)
Cc1c(F)cc(-c2ccc3c(c2)N(S(=O)(=O)c2cccc(C(F)(F)F)c2)C[C@H](CC(C)C(=O)O)O3)c(Cl)c1F (stereo partly drawn) [Compound 46A, 3-((S)-6-(2-chloro-3,5-difluoro-4-methylphenyl)-4-((3-(trifluoro-methyl)phenyl)sulfonyl)-3,4-dihydro-2H-benzo[b][1,4]oxazin-2-yl)-2-methylpropanoic acid] | 500 to 5000 | < 500 | – | ** (The symbol “**” indicates a value in the range of greater than 90 to 150) | *** (The symbol “***” indicates a value in the range of greater than 150 to 200) | –
O=C(CC[C@H]1CN(S(=O)(=O)c2cccc(C(F)(F)F)c2)c2cc(-c3ccc(F)cc3F)ccc2O1)NS(=O)(=O)C1CC1 [Compound 43B, (S)-N-(cyclopropylsulfonyl)-3-(6-(2,4-difluorophenyl)-4-((3-(trifluoromethyl)phenyl)-sulfonyl)-3,4-dihydro-2H-benzo[b][1,4]oxazin-2-yl)propanamide] | 500 to 5000 | < 500 | – | ** (The symbol “**” indicates a value in the range of greater than 90 to 150) | **** (The symbol “****” indicates a value greater than 200) | –
CCOc1cccc(-c2ccc3c(c2)N(S(=O)(=O)c2cccc(C(F)(F)F)c2)C[C@H](CCC(=O)O)O3)c1F [Compound 4AA, (S)-3-(6-(3-ethoxy-2-fluorophenyl)-4-((3-(trifluoromethyl)phenyl)sulfonyl)-3,4-dihydro-2H-benzo[b][1,4]oxazin-2-yl)propanoic acid] | < 500 | < 500 | – | ** (The symbol “**” indicates a value in the range of greater than 90 to 150) | **** (The symbol “****” indicates a value greater than 200) | –
CC(C)(C[C@H]1CN(S(=O)(=O)c2cccc(C(F)(F)F)c2)c2cc(-c3cc(Cl)cc(F)c3Cl)ccc2O1)C(=O)O [Compound 32AW, (S)-3-(6-(2,5-dichloro-3-fluoro-phenyl)-4-((3-(trifluoromethyl)-phenyl)sulfonyl)-3,4-dihydro-2H-benzo[b][1,4]oxazin-2-yl)-2,2-dimethylpropanoic acid] | – | < 500 | < 500 | – | ** (The symbol “**” indicates a value in the range of greater than 90 to 150) | ** (The symbol “**” indicates a value in the range of greater than 90 to 150)
COc1cc(F)c(F)c(-c2ccc3c(c2)N(S(=O)(=O)c2cccc(C(F)(F)F)c2)C[C@H](CCC(=O)O)O3)c1 [Compound 4AR, (S)-3-(6-(2,3-difluoro-5-methoxyphenyl)-4-((3-(trifluoromethyl)phenyl)sul-fonyl)-3,4-dihydro-2H-benzo[b][1,4]oxazin-2-yl)propanoic acid] | < 500 | < 500 | – | ** (The symbol “**” indicates a value in the range of greater than 90 to 150) | **** (The symbol “****” indicates a value greater than 200) | –
CC(C)(C[C@H]1CN(S(=O)(=O)c2cccc(C(F)(F)F)c2)c2cc(-c3cc(F)ccc3F)ccc2O1)NC(=O)C(C)(C)O [Compound 30CX, (S)-N-(1-(6-(2,5-difluoro-phenyl)-4-((3-(trifluoromethyl)-phenyl)sulfonyl)-3,4-dihydro-2H-benzo[b][1,4]oxazin-2-yl)-2-methylpropan-2-yl)-2-hydroxy-2-methylpropanamide] | – | < 500 | < 500 | – | ** (The symbol “**” indicates a value in the range of greater than 90 to 150) | * (The symbol “*” indicates a value in the range of 25 to 90)
O=C(O)CC[C@H]1CN(S(=O)(=O)c2cccc(C(F)(F)F)c2)c2cc(-c3cccc(C(F)(F)F)n3)ccc2O1 [Compound 4A, (S)-3-(4-((3-(trifluoromethyl)-phenyl)sulfonyl)-6-(6-(trifluoromethyl)pyridin-2-yl)-3,4-dihydro-2H-benzo[b][1,4]oxazin-2-yl)propanoic acid] | < 500 | < 500 | – | *** (The symbol “***” indicates a value in the range of greater than 150 to 200) | *** (The symbol “***” indicates a value in the range of greater than 150 to 200) | –
O=C(O)CC[C@H]1CN(S(=O)(=O)c2cccc(C(F)(F)F)c2)c2cc(-c3ccc(F)cc3Cl)ccc2O1 [Compound 2W, (S)-3-(6-(2-chloro-4-fluorophenyl)-4-((3-(trifluoromethyl)phenyl)-sulfonyl)-3,4-dihydro-2H-benzo[b][1,4]oxazin-2-yl)propanoic acid] | 500 to 5000 | < 500 | – | ** (The symbol “**” indicates a value in the range of greater than 90 to 150) | *** (The symbol “***” indicates a value in the range of greater than 150 to 200) | –

Continued, in another order:

EC50 (Gal4-RORγ-LBD; [1]) [nM] | EC50 (RORγ-LBD) [nM] | EC50 (Gal4-RORγ-LBD; 2 μM ursolic acid) [nM] | Compound | Gal4-RORγ Assay Max Response (Gal4-RORγ-LBD; [1]) | TR-FRET Assay Max Response (RORγ-LBD) | Gal4-RORγ Assay Max Response (Gal4-RORγ-LBD; 2 μM ursolic acid)
< 500 | < 500 | – | COc1cc(S(=O)(=O)N2C[C@H](CNC(=O)C(C)(C)O)Oc3ccc(-c4cc(F)ccc4F)cc32)ccc1F [Compound 30Q, (S)-N-((6-(2,5-difluorophenyl)-4-((4-fluoro-3-methoxyphenyl)-sulfonyl)-3,4-dihydro-2H-benzo[b][1,4]oxazin-2-yl)methyl)-2-hydroxy-2-methylpropanamide] | * (The symbol “*” indicates a value in the range of 25 to 90) | **** (The symbol “****” indicates a value greater than 200) | –
< 500 | < 500 | – | O=S(=O)(c1cccc(C(F)(F)F)c1)N1C[C@H](CCCO)Oc2ccc(-c3cc(F)cc(F)c3)cc21 [Compound 34C, (S)-3-(6-(3,5-difluorophenyl)-4-((3-(trifluoromethyl)phenyl)-sulfonyl)-3,4-dihydro-2H-benzo[b][1,4]oxazin-2-yl)propan-1-ol] | ** (The symbol “**” indicates a value in the range of greater than 90 to 150) | **** (The symbol “****” indicates a value greater than 200) | –
> 10000 | 500 to 5000 | – | Cc1nnc(-c2ccc3c(c2)N(S(=O)(=O)c2cccc(C(F)(F)F)c2)C[C@H](CCC(=O)O)O3)o1 [Compound 4Z, (S)-3-(6-(5-methyl-1,3,4-oxadiazol-2-yl)-4-((3-(trifluoro-methyl)phenyl)sulfonyl)-3,4-dihydro-2H-benzo[b][1,4]-oxazin-2-yl)propanoic acid] | – | * (The symbol “*” indicates a value in the range of 25 to 90) | –
< 500 | < 500 | – | O=c1[nH]nc(CC[C@H]2CN(S(=O)(=O)c3cccc(C(F)(F)F)c3)c3cc(-c4cc(F)cc(F)c4Cl)ccc3O2)o1 [Compound 28I, (S)-5-(2-(6-(2-chloro-3,5-difluorophenyl)-4-((3-(trifluoromethyl)phenyl)sulfonyl)-3,4-dihydro-2H-benzo[b][1,4]oxazin-2-yl)ethyl)-1,3,4-oxadiazol-2(3H)-one] | ** (The symbol “**” indicates a value in the range of greater than 90 to 150) | **** (The symbol “****” indicates a value greater than 200) | –
< 500 | < 500 | – | O=C(O)CC[C@H]1CN(S(=O)(=O)c2cccc(C(F)(F)F)c2)c2cc(-c3nccc(C(F)(F)F)n3)ccc2O1 [Compound 4B, (S)-3-(4-((3-(trifluoromethyl)-phenyl)sulfonyl)-6-(4-(trifluoromethyl)pyrimidin-2-yl)-3,4-dihydro-2H-benzo[b][1,4]oxazin-2-yl)propanoic acid] | ** (The symbol “**” indicates a value in the range of greater than 90 to 150) | *** (The symbol “***” indicates a value in the range of greater than 150 to 200) | –
< 500 | < 500 | – | O=C(O)CC[C@H]1CN(S(=O)(=O)c2cccc(C(F)(F)F)c2)c2cc(-c3cc(F)cc(Cl)c3F)ccc2O1 [Compound 4AY, (S)-3-(6-(3-chloro-2,5-difluorophenyl)-4-((3-(trifluoromethyl)phenyl)-sulfonyl)-3,4-dihydro-2H-benzo[b][1,4]oxazin-2-yl)propanoic acid] | ** (The symbol “**” indicates a value in the range of greater than 90 to 150) | *** (The symbol “***” indicates a value in the range of greater than 150 to 200) | –
500 to 5000 | 500 to 5000 | – | Cn1cc(-c2ccc3c(c2)N(S(=O)(=O)c2cccc(C(F)(F)F)c2)C[C@H](CCC(=O)O)O3)cn1 [Compound 2AQ, (S)-3-(6-(1-methyl-1H-pyrazol-4-yl)-4-((3-(trifluoromethyl)-phenyl)sulfonyl)-3,4-dihydro-2H-benzo[b][1,4]oxazin-2-yl)propanoic acid] | * (The symbol “*” indicates a value in the range of 25 to 90) | **** (The symbol “****” indicates a value greater than 200) | –
